Key:
KRAS 4B G12C protein = target: T1, KRAS 4B G12C protein (Homo sapiens, UniProt P01116, G12C); assay: KRAS G12C covalent adduct formation (CAF) assay, LC-MS; format: binding; details: 10 μM compound, 5 μM protein, 22° C.
T1 construct: made in house; host or cells: E. coli BL21
Procedure: This Example provides a protocol for assessing covalent adduct formation (CAF) between the compounds of Formula (I) and KRAS.
In vitro covalent adduct formation assay: Covalent adduct formation (CAF) reactions between Cys12 of the KRAS 4B G12C protein and the compounds disclosed herein were measured in vitro using liquid chromatography-mass spectrometry (LC-MS).
Recombinant Human KRAS 4B protein containing the G12C mutation was used in compound screening experiments. This protein contained 188 amino acids in total, including an N-terminal 6-Histidine tag, followed by a Tobacco Etch Virus (TEV) tag, followed by residues 1-169 of the native KRAS 4B sequence. The exact mass of the protein is 21,310 Da as determined by mass spectrometry. […]
The recombinant protein is expressed in E. coli BL21 cells and purified using affinity chromatography via a Ni-NTA column. […] The intact mass of the protein samples was measured by LC-MS using a QExactive+ mass spectrometer (Thermo Scientific). An amount of 500 ng total protein was injected onto a C8 reverse phase column, eluted with a seven-minute gradient of 30%-90% acetonitrile/0.1% formic acid, and analyzed for intact mass by the mass spectrometer. Adducts identified were confirmed to be within 1 Dalton of the expected mass, and the relative ratios of free:adduct protein were used to quantify the percentage of protein bound by the compound. […]

[1] = system: Ras Initiative (RI) KRAS G12C cells; assay: phospho-ERK HTRF assay in RI KRAS G12C cells; format: cell-based; details: 11-point dose response starting at 2,500 nM, 4 hours or 16 hours treatment, read-out: pERK (RI)
Procedure: KRAS G12C mutant lines, NCI H358 (ATCC, CRL-5807), and Ras Initiative (RI) KRAS G12C were cultured according to published protocols and maintained at 37° C. in 5% CO2. The phospho-ERK HTRF assay was executed following provider's protocol (CisBio #64AERPEH). NCI-H358 or RI KRAS G12C cells were plated at a density of 50,000 cells per well in a 96-well plate (Corning #3903) in respective medias (for NCI-H358, RPMI+10% FBS+1% Pen/Strep, and for RI KRAS G12C, DMEM+10% FBS+1% Pen/Strep+4 μg/mL Blasticidin) and maintained at 37° C. in 5% CO2. Cells were allowed to adhere overnight and treated the following day with a Tecan D300e Digital Dispenser (Tecan Group Ltd., Switzerland) using an 11-point dose response starting at 2,500 nM of exemplified compounds followed by sequential 1:3 dilutions for either 4 hours or 16 hours. Following compound treatment, the cells were washed once with ice-cold PBS. Cells were lysed by adding 50 μL of lysis buffer (1×) supplemented with 1× Pierce Halt Protease and Phosphatase inhibitor and incubated for 30 minutes at 4° C. with shaking. After lysis, 16 μL of cell lysate from the 96-well cell-culture plate was transferred to a 384-well plate (Perkin Elmer #6007290). The premixed antibody solution was prepared by mixing (vol/vol) advanced phospho-ERK1/2 d2 antibody and advanced phospho-ERK1/2 Eu Cryptate antibody. The premixed antibody solution (4 μL) was added to the detection plate containing cell lysate. The detection plate was incubated overnight at 4° C., the HTRF signal was read the next day by using either a Spectramax M5 or Spectramax i3 microplate reader (Molecular Devices, San Jose, CA, USA), and data was processed according to manufacturer's protocol.
Examples were evaluated according to the above p-ERK assay

SMILES	% CAF @ 60 min (KRAS 4B G12C protein)	IC50 [1]
C=CC(=O)N1[C@H](C)CN(c2nc(=O)n3c4c(c(-c5ccc(F)c6[nH]c(=O)[nH]c56)c(C(F)(F)F)cc24)SC[C@@H](OC)C3)C[C@@H]1C [Example 1, (3S)-8-((3S,5R)-4-acryloyl-3,5-dimethylpiperazin-1-yl)-11-(7-fluoro-2-oxo-2,3-dihydro-1H-benzo[d]imidazol-4-yl)-3-methoxy-10-(trifluoromethyl)-3,4-dihydro-2H,6H-[1,4]thiazepino[2,3,4-ij]quinazolin-6-one]	75%	> 2500 nM
C=CC(=O)N1[C@H](C)CN(c2nc(=O)n3c4c(c(-c5ccc(F)c6sc(=O)[nH]c56)c(C(F)(F)F)cc24)SCC2(CCC2)C3)C[C@@H]1C [Example 8, 8′-((3S,5R)-4-acryloyl-3,5-dimethylpiperazin-1-yl)-11′-(7-fluoro-2-oxo-2,3-dihydrobenzo[d]thiazol-4-yl)-10′-(trifluoromethyl)-2′H,4′H,6′H-spiro[cyclobutane-1,3′-[1,4]thiazepino[2,3,4-ij]quinazolin]-6′-one]	–	171 nM
C=CC(=O)N1[C@H](C)CN(c2nc(=O)n3c4c(c(-c5ccc(F)c6[nH]c(=O)[nH]c56)c(C(F)(F)F)cc24)SC[C@@H]3COC)C[C@@H]1C [Example 2, (3S,10S)-7-((3S,5R)-4-acryloyl-3,5-dimethylpiperazin-1-yl)-10-(7-fluoro-2-oxo-2,3-dihydro-1H-benzo[d]imidazol-4-yl)-3-(methoxymethyl)-9-(trifluoromethyl)-2,3-dihydro-5H-[1,4]thiazino[2,3,4-ij]quinazolin-5-one]	–	> 2500 nM
C=CC(=O)N1CCN(c2nc(=O)n3c4c(c(-c5ccc(F)c6sc(=O)[nH]c56)c(C(F)(F)F)cc24)SC[C@@H]3COC)CC1 [Example 7, (3S,10S)-7-(4-acryloylpiperazin-1-yl)-10-(7-fluoro-2-oxo-2,3-dihydrobenzo[d]thiazol-4-yl)-3-(methoxymethyl)-9-(trifluoromethyl)-2,3-dihydro-5H-[1,4]thiazino[2,3,4-ij]quinazolin-5-one]	–	18 nM
C=CC(=O)N1[C@H](C)CN(c2nc(=O)n3c4c(c(-c5ccc(F)c6sc(=O)n(C)c56)c(C(F)(F)F)cc24)SC[C@@H]3COC)C[C@@H]1C [Example 10, (3S)-7-((3S,5R)-4-acryloyl-3,5-dimethylpiperazin-1-yl)-10-(7-fluoro-3-methyl-2-oxo-2,3-dihydrobenzo[d]thiazol-4-yl)-3-(methoxymethyl)-9-(trifluoromethyl)-2,3-dihydro-5H-[1,4]thiazino[2,3,4-ij]quinazolin-5-one]	–	46 nM
C=CC(=O)N1[C@H](C)CN(c2nc(=O)n3c4c(c(-c5ccc(F)c6sc(=O)[nH]c56)c(C(F)(F)F)cc24)SC[C@@H]3COC)C[C@@H]1C [Example 6, (3S,10S)-7-((3S,5R)-4-acryloyl-3,5-dimethylpiperazin-1-yl)-10-(7-fluoro-2-oxo-2,3-dihydrobenzo[d]thiazol-4-yl)-3-(methoxymethyl)-9-(trifluoromethyl)-2,3-dihydro-5H-[1,4]thiazino[2,3,4-ij]quinazolin-5-one]	–	68 nM

The remaining lines, values ahead:

% CAF @ 60 min (KRAS 4B G12C protein)	IC50 [1]	SMILES
–	> 2500 nM	C=CC(=O)N1CCN(c2nc(=O)n3c4c(c(-c5ccc(F)c6[nH]c(=O)[nH]c56)c(C(F)(F)F)cc24)SCC2(CCC2)C3)CC1 [Example 5, 8′-(4-acryloylpiperazin-1-yl)-11′-(7-fluoro-2-oxo-2,3-dihydro-1H-benzo[d]imidazol-4-yl)-10′-(trifluoromethyl)-2′H,4′H,6′H-spiro[cyclobutane-1,3′-[1,4]thiazepino[2,3,4-ij]quinazolin]-6′-one]
–	222 nM	C=CC(=O)N1CCN(c2nc(=O)n3c4c(c(-c5ccc(F)c6sc(=O)[nH]c56)c(C(F)(F)F)cc24)SCC2(CCC2)C3)CC1 [Example 9, 8′-(4-acryloylpiperazin-1-yl)-11′-(7-fluoro-2-oxo-2,3-dihydrobenzo[d]thiazol-4-yl)-10′-(trifluoromethyl)-2′H,4′H,6′H-spiro[cyclobutane-1,3′-[1,4]thiazepino[2,3,4-ij]quinazolin]-6′-one]
–	> 2500 nM	C=CC(=O)N1[C@H](C)CN(c2nc(=O)n3c4c(c(-c5ccc(F)c6[nH]c(=O)[nH]c56)c(C(F)(F)F)cc24)SCC2(CCC2)C3)C[C@@H]1C [Example 4, 8′-((3S,5R)-4-acryloyl-3,5-dimethylpiperazin-1-yl)-11′-(7-fluoro-2-oxo-2,3-dihydro-1H-benzo[d]imidazol-4-yl)-10′-(trifluoromethyl)-2′H, 4′H,6′H-spiro[cyclobutane-1,3′-[1,4]thiazepino[2,3,4-ij]quinazolin]-6′-one]
–	> 2500 nM	C=CC(=O)N1CCN(c2nc(=O)n3c4c(c(-c5ccc(F)c6[nH]c(=O)[nH]c56)c(C(F)(F)F)cc24)SC[C@@H]3COC)CC1 [Example 3, (3S,10S)-7-(4-acryloylpiperazin-1-yl)-10-(7-fluoro-2-oxo-2,3-dihydro-1H-benzo[d]imidazol-4-yl)-3-(methoxymethyl)-9-(trifluoromethyl)-2,3-dihydro-5H-[1,4]thiazino[2,3,4-ij]quinazolin-5-one]

Reference: US20240383921A1, “AMIDE AND UREA-CONTAINING TRICYCLIC KRAS INHIBITORS” (Erasca, Inc., priority 2021, published 2024)
